In patent publication US20230014226A1, “NEW COMPOUNDS AND METHODS” (BenevolentAI Bio Limited, priority 2019, published 2023):

Tests used:
[1] = system: murine Hb9-GFP+ motor neurons in co-culture with ALS patient iAstrocytes; experiment: Human iAstrocyte - murine Hb9-GFP+ motor neuron co-culture; type: cell-based, human iAstrocytes
Excerpt: iNPCs (induced Neuronal Progenitor Cells) were derived from ALS patient fibroblasts as described previously (Meyer et al. 20148). iNPCs were differentiated into iAstrocytes by culturing in iAsrocyte media for at least 5 days. Murine motor neurons expressing the green fluorescent protein (GFP) under the Hb9 motor neuron-specific promoter (called from now on Hb9-GFP+) were differentiated from murine embryonic stem cells via embryoid bodies (EBs), as previously described (Haidet-Phillips et al. 20119, Wichterle et al. 200210).
iNPCs and mESC were split into iAstrocyte media and mEB media respectively on the same day, such that iAstrocytes and motor neurons will have both differentiated for 7 days when seeded together in co-culture.
Changed media on iAstrocytes, and split using accutase if 90-100% confluent 3 days after seeding from iNPCs. iAstrocytes were left a further 2 days in iAstrocyte media until seeded onto 384-well plates.
Diluted fibronection 1:400 in PBS, and 5 μL added per well. The plate was incubated with fibronectin at room temp for at least 5 mins.
The media was removed from iAstrocytes, and washed in PBS. 1 mL accutase per 10 cm plate was added, and incubated at 37° C. for 4 mins. The plate was tapped to dislodge any remaining iAstrocytes. The iAstrocytes were resuspended in iAstro media, and centrifuged at 200×g for 4 mins. The supernatant was removed, the falcon was flicked to vortex the cells, and resuspended the cells in an appropriate amount of iAstrocyte media. Counted cells using the haemocytometer, and diluted cells to an appropriate dilution for seeding. Seeded 1-2,000 iAstrocytes in 35 μL media on fibronectin-coated 384-well plates. Centrifuged 384-well plates at 1,760×rpm for 60 s using a PK120 (ALC) centrifuged (in neurogenetics) to collect media and cells to base of wells. Plates were left for 24 h for iAstrocytes to adhere to plate.
Drugs were delivered in 100% drug-grade DMSO to iAstrocyte media using an Echo550 liquid handler (Labcyte). 384-well plates were centrifuged at 1,760×rpm for 60 s using a PK120 (ALC) centrifuge.
2 plates of EBs were collected in a 50 mL tube and centrifuged for 4 mins at 200×g. The supernatant was removed from EBs after centrifugation, and washed in 10 mL PBS then centrifuged again for 4 mins at 200×g, and PBS wash removed.
For each 50 mL tube, 2.75 mL EB dissociation buffer was added and then 250 μL 200 U/mL (10×) Papain. The solution was gently pipetted up and down 10 times, using a P1000 pipette, against the side of the falcon (EB pellet was not pipetted directly). 50 mL tube was put in 37° C. water bath and incubated for 5 mins. Tube removed every 3 mins and gently shaken. After 5 mins, additional 2 mL of EB dissociation and 100 μL 200 U/mL (10×) Papain were added, which was then pipette again 5 times with P1000 pipette, and returned to the water bath for another 5 mins. It was returned to water bath as before, and incubated for no longer than 15-20 mins.
Centrifuged for 5 mins at 300×g. Each 50 mL tube, 2.7 mL EB dissociation was prepared, to which 300 μL FBS and 150 μL 0.5 mg/mL DNaseI was added. The supernatant was removed from dissociated EBs and 3 mL of the FBS/DNaseI mix was added, pipetted up and down with P1000 pipette about 5 times. 5 mL FBS was added very slowly to the bottom of the falcon containing the dissociated EBs. The supernatant was removed and the cells very gently resuspended in about 3 mL MN media (more used if the pellet is large) and filtered through a 40 μm filter. 1 mL extra MN media was added to wash the filter.
2,500 murine Hb9-GFP+ motor neurons were seeded per well in 10 μL motor neuron media on top of the pre-treated iAstrocytes. 384-well plates were centrifuged at 1,760×rpm for 60 s using a PK120 (ALC) centrifuge.
Day8 15 μL motor neuron media were added per well. Hb9-GFP+ motor neurons were imaged using an INCELL analyser 2000 (GE Healthcare)—day 1 of co-culture. […]

[2] = system: α-synuclein in ReNcell VM Neuronal cells; experiment: Modulation of α-synuclein aggregation; type: cell-based
Experimental: Compounds were assessed for their ability to modulate α-synuclein aggregation. ReNcell VM Neuronal cells were transduced with α-synuclein encoded adenovirus, and compounds were added after 24 hours. After 72 hours, compound was refreshed. After an additional 72 h, cells were fixated (a total of 6 days of compound treatment). Two distinct α-synuclein antibodies were added (Syn205 and MJF-14), imaging was performed on IN Cell 2200 at 10× magnification. Immunoreactivity is quantified by a high content algorithm. Compound data is normalized to a negative control (0.1% DMSO) and a positive control (10 μM KU0063794; CAS 938440-64-3).

HUVEC = HUVEC Cell Viability (CV) assay; type: cell-based, human; settings: Homo sapiens, alamarBlue
Experimental: Cells are seeded at 10,000 cells/well in 96-well plates in HUVEC specific cell culture media. Cells are plated and cultured overnight (16-24 h) at 37° C. After the overnight culture, cells are washed and fed with the Assay Medium. Test compounds are applied and incubated with the cells for the designated time period, after which the cell viability is measured by alamarBlue method. […] The final DMSO concentration is 1%.
Fluorescence readings are recorded after the test compound and alamarBlue incubation. The excitation and emission wavelengths are 530 nm and 590 nm, respectively.
The percent of control is calculated by comparing the readings in the presence of the test compound to the vehicle control. Subsequently, the percent inhibition is calculated by subtracting the percent control activity from 100. IC50 values (concentration causing a half-maximal inhibition of the control value) are determined by non-linear regression analysis of the concentration-response curves using the Hill equation.
The reference compound used for this assay is Staurosporine.

hERG ion channel = hERG ion channel (Homo sapiens, UniProt Q12809); experiment: hERG QPatch automated patch clamp; type: cell-based; settings: CHO cells stably expressing hERG, QPatch 48, tail current
Experimental: hERG IC50 data was supplied by Metrion using their standard assay protocol briefly detailed below.
hERG ion channel screening was assayed in CHO cells stably expressing the human ether-á-go-go related gene, using the QPatch 48 automated, chip-based planar patch clamp device. A Gigaohm seal between the cell membrane and treated silicon surface was obtained and specific external and internal buffered solutions applied to cells prior to recording. Following baseline vehicle treatment, compounds were applied in increasing concentrations (8 pt CRC), effects on hERG tail current amplitudes were measured in two-minute recordings.

Chain of hERG ion channel (Q12809 whole entry): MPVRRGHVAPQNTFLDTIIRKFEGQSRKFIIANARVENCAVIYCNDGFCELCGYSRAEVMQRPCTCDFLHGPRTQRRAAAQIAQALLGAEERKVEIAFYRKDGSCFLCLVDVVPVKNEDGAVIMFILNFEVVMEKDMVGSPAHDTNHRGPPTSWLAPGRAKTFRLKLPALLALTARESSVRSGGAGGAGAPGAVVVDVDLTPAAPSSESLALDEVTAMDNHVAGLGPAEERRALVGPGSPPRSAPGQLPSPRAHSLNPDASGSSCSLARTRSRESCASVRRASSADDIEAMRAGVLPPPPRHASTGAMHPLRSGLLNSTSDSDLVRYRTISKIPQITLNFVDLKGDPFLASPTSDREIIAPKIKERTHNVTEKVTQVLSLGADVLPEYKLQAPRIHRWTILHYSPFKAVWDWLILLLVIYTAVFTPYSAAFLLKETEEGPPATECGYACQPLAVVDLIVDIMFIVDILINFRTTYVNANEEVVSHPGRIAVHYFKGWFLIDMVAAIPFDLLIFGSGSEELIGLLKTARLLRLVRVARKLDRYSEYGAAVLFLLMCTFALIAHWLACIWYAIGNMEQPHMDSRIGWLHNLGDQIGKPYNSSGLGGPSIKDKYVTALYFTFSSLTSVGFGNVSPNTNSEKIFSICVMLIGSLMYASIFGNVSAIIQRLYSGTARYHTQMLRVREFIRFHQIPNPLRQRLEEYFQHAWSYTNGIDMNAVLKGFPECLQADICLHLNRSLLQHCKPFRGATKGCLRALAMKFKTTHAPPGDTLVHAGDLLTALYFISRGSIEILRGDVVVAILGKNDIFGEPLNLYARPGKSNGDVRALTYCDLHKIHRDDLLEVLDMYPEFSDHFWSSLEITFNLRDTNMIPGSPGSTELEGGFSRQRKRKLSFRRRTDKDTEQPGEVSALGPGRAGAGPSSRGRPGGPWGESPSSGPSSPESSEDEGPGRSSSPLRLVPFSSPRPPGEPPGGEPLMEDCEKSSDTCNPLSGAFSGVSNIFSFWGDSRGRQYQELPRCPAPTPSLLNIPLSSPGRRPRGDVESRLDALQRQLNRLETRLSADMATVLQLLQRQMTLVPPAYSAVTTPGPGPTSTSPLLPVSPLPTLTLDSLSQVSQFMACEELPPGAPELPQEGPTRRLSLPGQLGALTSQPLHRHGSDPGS

## Cc1ccc(C(=O)Nc2cn(C(C)C)cn2)cc1C#Cc1cccnc1 [Example 25, N-(1-isopropylimidazol-4-yl)-4-methyl-3-[2-(3-pyridyl)ethynyl]benzamide]
[1]; 72 hours co-culture, dose dependant, maximum responses close to positive control (1 μM Nilotinib)
  rescue of motor neuron survival in co-culture with patient-derived iAstrocytes (FIG. 3): rescue motor neuron survival
[1]; potentially due to compound toxicity
  efficacy at very high concentrations (motor neuron survival): reduction in efficacy at very high concentrations
[2]; 6 days of compound treatment, antibodies Syn205 and MJF-14
  amount of α-synuclein present in ReNcell VM neuronal cells (FIG. 4): dose dependant reduction
[2]; ReNcell VM, 100% = reduction equal to 10 μM KU0063794, 0% = 0.1% DMSO
  IC50: 1 to 10 µM
HUVEC
  IC50: 45 µM
hERG ion channel
  IC50: > 10 µM
